According to patent US20240158393A1, “PYRIDONE COMPOUNDS AND METHODS OF USE” (Exelixis, Inc., priority 2021, published 2024):
Where a name gives a salt, the structure may show the parent alone.

How the values were obtained:
[1] = target: T1, Human Axl (Homo sapiens, UniProt P30530); assay: Human AXL kinase assay (33P radiometric / HTRF KinEase); type: biochemical; details: protocols of Examples A-1 and/or A-2
T1 construct: Human AXL (residues 464-885)
T1 sequence (P30530 1-894 Q764R): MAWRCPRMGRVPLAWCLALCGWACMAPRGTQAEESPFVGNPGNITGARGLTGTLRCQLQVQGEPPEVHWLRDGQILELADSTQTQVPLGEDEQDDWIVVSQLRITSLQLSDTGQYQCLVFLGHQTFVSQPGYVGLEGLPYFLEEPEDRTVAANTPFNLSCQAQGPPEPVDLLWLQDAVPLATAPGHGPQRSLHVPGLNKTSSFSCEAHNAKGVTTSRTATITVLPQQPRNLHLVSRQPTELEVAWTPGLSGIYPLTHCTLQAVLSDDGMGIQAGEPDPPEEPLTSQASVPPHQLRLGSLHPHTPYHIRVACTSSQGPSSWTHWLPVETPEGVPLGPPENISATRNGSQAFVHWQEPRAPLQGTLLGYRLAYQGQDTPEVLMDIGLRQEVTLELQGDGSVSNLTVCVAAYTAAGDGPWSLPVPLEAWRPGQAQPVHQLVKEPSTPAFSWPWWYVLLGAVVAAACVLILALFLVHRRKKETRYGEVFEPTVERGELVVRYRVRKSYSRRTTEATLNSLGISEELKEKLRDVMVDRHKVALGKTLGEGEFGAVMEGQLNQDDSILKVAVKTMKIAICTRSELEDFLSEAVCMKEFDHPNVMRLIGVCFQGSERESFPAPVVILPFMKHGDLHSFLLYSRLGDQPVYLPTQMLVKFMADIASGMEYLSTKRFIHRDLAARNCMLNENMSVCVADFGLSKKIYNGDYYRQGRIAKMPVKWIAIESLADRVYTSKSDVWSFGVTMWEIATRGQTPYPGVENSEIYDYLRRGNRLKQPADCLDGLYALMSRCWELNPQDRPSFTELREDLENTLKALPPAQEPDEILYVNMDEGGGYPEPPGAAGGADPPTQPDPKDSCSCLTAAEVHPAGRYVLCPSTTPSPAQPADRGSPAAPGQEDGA

[2] = target: T2, Human Met (Homo sapiens, UniProt P08581); assay: Human Met kinase assay (33P radiometric / HTRF KinEase); type: biochemical; details: protocols of Examples D-1 and/or D-2; read-out: c-Met IC50
T2 construct: Human MET (residues 956-1390)
Method in brief: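 Two formats gave IC50s by curve fitting. HTRF KinEase used MET residues 956-1390 with 1 μM biotin-peptide and 3.0 μM ATP (Km) for 40 min at room temperature, ten doses in 3% DMSO, 665/620 nm read. The 33P transfer assay used mutant Met R974-S1390 A1209G/V1290L (3.4 nM), 10 μM ATP, 250 μM peptide, pH 7.0, 40 min, nine doses from 1 μM.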

T2 sequence (P08581 974-1390 limits assumed): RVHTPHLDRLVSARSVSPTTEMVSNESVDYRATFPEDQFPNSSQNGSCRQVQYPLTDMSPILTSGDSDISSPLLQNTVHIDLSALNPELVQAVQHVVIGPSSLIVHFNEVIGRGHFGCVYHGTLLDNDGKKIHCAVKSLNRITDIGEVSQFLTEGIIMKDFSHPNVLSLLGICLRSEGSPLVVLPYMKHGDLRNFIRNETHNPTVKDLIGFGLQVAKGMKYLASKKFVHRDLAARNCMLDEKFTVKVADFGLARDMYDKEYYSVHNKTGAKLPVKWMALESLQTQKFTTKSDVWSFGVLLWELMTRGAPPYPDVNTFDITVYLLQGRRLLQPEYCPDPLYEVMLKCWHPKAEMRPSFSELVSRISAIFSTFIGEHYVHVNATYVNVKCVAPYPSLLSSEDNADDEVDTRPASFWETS

| IC50 [1] [nM] | IC50 [2] [nM] | SMILES |
| --- | --- | --- |
| ≤ 100 | ≤ 100 | COCCOc1cnc2c(Oc3ccc(NC(=O)c4c(C)n(C)c(C)c(C5=CCCC5)c4=O)cc3F)ccnc2c1 [Compound 65, 5-(Cyclopenten-1-yl)-N-[3-fluoro-4-[[7-(2-methoxyethoxy)-1,5-naphthyridin-4-yl]oxy]phenyl]-1,2,6-trimethyl-4-oxopyridine-3-carboxamide] |
| ≤ 100 | > 300 | C=C(C)c1c(C)n(C)c(C)c(C(=O)Nc2ccc(Oc3ccnc4cc(OC)c(OC)nc34)c(F)c2)c1=O [Compound 52, N-[4-[(6,7-Dimethoxy-1,5-naphthyridin-4-yl)oxy]-3-fluorophenyl]-1,2,6-trimethyl-4-oxo-5-prop-1-en-2-ylpyridine-3-carboxamide] |
| ≤ 100 | ≤ 100 | COCCOc1cc2nccc(Oc3ccc(NC(=O)c4c(C)n(C)c(C)c(C5=CCCCC5)c4=O)cc3F)c2nc1OC [Compound 58, 5-(Cyclohexen-1-yl)-N-[3-fluoro-4-[[6-methoxy-7-(2-methoxyethoxy)-1,5-naphthyridin-4-yl]oxy]phenyl]-1,2,6-trimethyl-4-oxopyridine-3-carboxamide] |
| ≤ 100 | ≤ 100 | COc1cc2nccc(Oc3ccc(NC(=O)c4c5n(cc(C6=CCCCC6)c4=O)CCOC5)cc3F)c2nc1OC [Compound G1-4, 7-(Cyclohexen-1-yl)-N-[4-[(6,7-dimethoxy-1,5-naphthyridin-4-yl)oxy]-3-fluorophenyl]-8-oxo-3,4-dihydro-1H-pyrido[2,1-c][1,4]oxazine-9-carboxamide] |
| ≤ 100 | ≤ 100 | COc1cc2nccc(Oc3ccc(NC(=O)c4cnc(C)c(C5=CCCC5)c4O)cc3F)c2nc1OC [Compound G1-2, 5-(Cyclopenten-1-yl)-N-[4-[(6,7-dimethoxy-1,5-naphthyridin-4-yl)oxy]-3-fluorophenyl]-4-hydroxy-6-methylpyridine-3-carboxamide hydrochloride] |
| ≤ 100 | > 300 | C=C(C)c1c(C)n(C)c(C)c(C(=O)Nc2ccc(Oc3ccnc4cc(OC)c(OC)nc34)cc2)c1=O [Compound 55, N-[4-[(6,7-Dimethoxy-1,5-naphthyridin-4-yl)oxy]phenyl]-1,2,6-trimethyl-4-oxo-5-prop-1-en-2-ylpyridine-3-carboxamide] |
| ≤ 100 | ≤ 100 | COc1cc2nccc(Oc3ccc(NC(=O)c4c5n(c(C)c(C6=CCOCC6)c4=O)CCOC5)cc3)c2nc1OC [Compound 73, 7-(3,6-Dihydro-2H-pyran-4-yl)-N-[4-[(6,7-dimethoxy-1,5-naphthyridin-4-yl)oxy]phenyl]-6-methyl-8-oxo-3,4-dihydro-1H-pyrido[2,1-c][1,4]oxazine-9-carboxamide] |
| ≤ 100 | ≤ 100 | COc1cc2nccc(Oc3ccc(NC(=O)c4c(C)n(C)c(C)c(C5=CCOCC5)c4=O)cc3F)c2nc1OC [Compound 53, 5-(3,6-Dihydro-2H-pyran-4-yl)-N-[4-[(6,7-dimethoxy-1,5-naphthyridin-4-yl)oxy]-3-fluorophenyl]-1,2,6-trimethyl-4-oxopyridine-3-carboxamide] |
| ≤ 100 | ≤ 100 | COCCOc1cnc2c(Oc3ccc(NC(=O)c4c(C)n(C)c(C)c(C5=CCCCC5)c4=O)cc3F)ccnc2c1 [Compound 66, 5-(Cyclohexen-1-yl)-N-[3-fluoro-4-[[7-(2-methoxyethoxy)-1,5-naphthyridin-4-yl]oxy]phenyl]-1,2,6-trimethyl-4-oxopyridine-3-carboxamide] |
| ≤ 100 | ≤ 100 | COc1cc2nccc(Oc3ccc(NC(=O)c4cnc(C)c(C5=CCCCC5)c4O)cc3F)c2nc1OC [Compound G1-3, 5-(Cyclohexen-1-yl)-N-[4-[(6,7-dimethoxy-1,5-naphthyridin-4-yl)oxy]-3-fluorophenyl]-4-hydroxy-6-methylpyridine-3-carboxamide] |
| ≤ 100 | ≤ 100 | COc1nc2c(Oc3ccc(NC(=O)c4c(C)n(C)c(C)c(C5=CCCC5)c4=O)cc3F)ccnc2cc1OCCC1CCC1 [Compound 74, N-[4-[[7-(2-Cyclobutylethoxy)-6-methoxy-1,5-naphthyridin-4-yl]oxy]-3-fluorophenyl]-5-(cyclopenten-1-yl)-1,2,6-trimethyl-4-oxopyridine-3-carboxamide] |
| ≤ 100 | 100 to 300 | COCCOc1cc2nccc(Oc3ccc(NC(=O)c4c(C)n(C)c(C)c(/C=C/C5CCCC5)c4=O)cc3F)c2nc1OC [Compound 54, 5-[(E)-2-Cyclopentylethenyl]-N-[3-fluoro-4-[[6-methoxy-7-(2-methoxyethoxy)-1,5-naphthyridin-4-yl]oxy]phenyl]-1,2,6-trimethyl-4-oxopyridine-3-carboxamide] |
